± gives the expanded uncertainty stated by the source.
Conditions: Liquid; for mass density: 293.15 K, 101.33 kPa, Vibrating tube method; for Normal boiling temperature: Ebulliometric method (Recirculating still)

mass density | Normal boiling temperature | SMILES
1092.48 ± 0.27 kg/m3 | 189.10 ± 1 °C | C[S+](C)[O-] [dimethyl sulfoxide]
928.92 ± 0.23 kg/m3 | 135.20 ± 1 °C | CCOCCO [2-ethoxyethan-1-ol]
863.64 ± 0.23 kg/m3 | 136.10 ± 1 °C | CCc1ccccc1 [ethylbenzene]

From the NIST ThermoML archive (doi:10.1021/je4006739)
